Source: ChEMBL document CHEMBL4765295, “Synthesis, pharmacological profile and 2D-QSAR studies of curcumin-amino acid conjugates as potential drug candidates” (Eur J Med Chem, 2020)
“And” between values parts separate entries of the source, which are not always exact repeats. Identical values can stand only once.

What was measured:
[1] = test system: Pseudomonas aeruginosa; assay: Antibacterial activity against Pseudomonas aeruginosa ATCC 27853 incubated for 18 hrs by agar dilution assay; assay type: functional
[2] = test system: Salmonella typhimurium; assay: Antibacterial activity against Salmonella typhimurium ATCC 19430 incubated for 18 hrs by agar dilution assay; assay type: functional, Salmonella enterica subsp. enterica serovar Typhimurium; details: Salmonella enterica
[3] = test system: Rattus norvegicus; assay: Anti-inflammatory activity in Wistar rat assessed as inhibition of carrageenan-induced paw edema at 10 mg/kg, ip pretreated for 1 hr followed by carrageenan challenge and measured after 4 hr relative to indomethacin; assay type: functional; details: time 5 hrs
[4] = test system: Splenocyte; assay: Immunomodulatory activity in Swiss albino mouse splenocytes assessed as cell viability at 10 uM by measuring inhibition of stimulation index incubated for 72 hrs in presence of mitogenic stimulus phytohaemagglutinin by MTT assay relative to indomethacin; assay type: functional; details: read-out: Activity
[5] = test system: Splenocyte; assay: Immunomodulatory activity in Swiss albino mouse splenocytes assessed as cell viability at 10 uM by measuring stimulation index incubated for 72 hrs in presence of mitogenic stimulus phytohaemagglutinin by MTT assay (reference value: 1.00 +/- 0.24); assay type: functional
[6] = test system: Rattus norvegicus; assay: Antiinflammatory activity in Wistar rat model of carrageenan-induced paw edema assessed as reduction in thickness of paw edema at 10 mg/kg, ip pretreated for 1 hr followed by carrageenan challenge and measured after 24 hrs (reference value: 0.83 +/-0.08 mm); assay type: functional; details: time 25 hrs
[7] = test system: Rattus norvegicus; assay: Anti-inflammatory activity in Wistar rat assessed as inhibition of carrageenan-induced paw edema at 10 mg/kg, ip pretreated for 1 hr followed by carrageenan challenge and measured after 2 hr relative to control (reference value: 0.00 +/-0.03 %); assay type: functional; details: time 3 hrs
[8] = test system: Rattus norvegicus; assay: Antiinflammatory activity in Wistar rat model of carrageenan-induced paw edema assessed as reduction in thickness of paw edema at 10 mg/kg, ip pretreated for 1 hr followed by carrageenan challenge and measured after 1 hr (reference value: 2.41 +/-0.05 mm); assay type: functional; details: time 1 hr after carrageenan
[9] = test system: Rattus norvegicus; assay: Anti-inflammatory activity in Wistar rat assessed as inhibition of carrageenan-induced paw edema at 10 mg/kg, ip pretreated for 1 hr followed by carrageenan challenge and measured after 24 hr relative to control (reference value: 0.00 +/-0.3 %); assay type: functional; details: time 25 hrs
[10] = test system: Rattus norvegicus; assay: Anti-inflammatory activity in Wistar rat assessed as inhibition of carrageenan-induced paw edema at 10 mg/kg, ip pretreated for 1 hr followed by carrageenan challenge and measured after 1 hr relative to control (reference value: 0.00 +/-0.02 %); assay type: functional; details: time 2 hrs
[11] = test system: Streptococcus pyogenes; assay: Antibacterial activity against Streptococcus pyogenes ATCC 19615 incubated for 18 hrs by agar dilution method; assay type: functional
[12] = test system: Candida albicans; assay: Antifungal activity against Candida albicans incubated for 18 to 24 hrs by CLSI method; assay type: functional; details: time 18-24 hrs
[13] = test system: Rattus norvegicus; assay: Antiinflammatory activity in Wistar rat model of carrageenan-induced paw edema assessed as reduction in thickness of paw edema at 10 mg/kg, ip pretreated for 1 hr followed by carrageenan challenge and measured after 3 hrs (reference value: 1.79 +/-0.07 mm); assay type: functional; details: time 4 hrs
[14] = test system: MCF7; assay: Antiproliferative activity against human MCF7 cells assessed as inhibition of cell growth after 72 hrs by MTT assay; assay type: functional, cell-based; details: MCF7, 72 h
[15] = test system: Rattus norvegicus; assay: Antiinflammatory activity in Wistar rat model of carrageenan-induced paw edema assessed as reduction in thickness of paw edema at 10 mg/kg, ip pretreated for 1 hr followed by carrageenan challenge and measured after 2 hrs (reference value: 2.06 +/-0.09 mm); assay type: functional; details: time 3 hrs
[16] = test system: Staphylococcus aureus; assay: Antibacterial activity against Staphylococcus aureus ATCC 25923 incubated for 18 hrs by agar dilution method; assay type: functional
[17] = test system: Rattus norvegicus; assay: Antiinflammatory activity in Wistar rat model of carrageenan-induced paw edema assessed as reduction in thickness of paw edema at 10 mg/kg, ip pretreated for 1 hr followed by carrageenan challenge and measured after 4 hrs (reference value: 1.40 +/-0.10 mm); assay type: functional; details: time 5 hrs
[18] = test system: PC-3; assay: Antiproliferative activity against human PC3 cells assessed as inhibition of cell growth after 72 hrs by MTT assay; assay type: functional, cell-based; details: PC-3, 72 h
[19] = test system: A549; assay: Antiproliferative activity against human A549 cells assessed as inhibition of cell growth after 72 hrs by MTT assay; assay type: functional, cell-based; details: A549, 72 h
[20] = test system: Peritoneal macrophage; assay: Antiinflammatory activity in […] mouse Peritoneal macrophages assessed as reduction in LPS-induced NO production by measuring reduction in stimulation index at 10 uM preincubated for 1 hr followed by LPS stimulation measured after 24 hrs by Griess method (reference value: 27.31 +/- 2.56 uM); assay type: functional; details: time 25 hrs
[21] = test system: Rattus norvegicus; assay: Anti-inflammatory activity in Wistar rat assessed as inhibition of carrageenan-induced paw edema at 10 mg/kg, ip pretreated for 1 hr followed by carrageenan challenge and measured after 4 hr relative to control (reference value: 0.00 +/-0.4 %); assay type: functional; details: time 5 hrs
[22] = test system: Peritoneal macrophage; assay: Antiinflammatory activity in […] mouse Peritoneal macrophages assessed as inhibition of LPS-induced NO production at 10 uM preincubated for 1 hr followed by LPS stimulation measured after 24 hrs by Griess method relative to control (reference value: 0.0 %); assay type: functional; design: scale not given: the % may be the effect or the level left; details: time 25 hrs
[23] = test system: Rattus norvegicus; assay: Anti-inflammatory activity in Wistar rat assessed as inhibition of carrageenan-induced paw edema at 10 mg/kg, ip pretreated for 1 hr followed by carrageenan challenge and measured after 3 hr relative to control (reference value: 0.00 +/-0.1 %); assay type: functional; details: time 4 hrs
[24] = Ulcerogenic activity in fasted albino mouse assessed as average number of ulcers in gastric mucosa at 10 mg/kg, po for 3 days (reference value: 0); assay type: toxicity, organism-based; details: in vivo, 72 h, time 3 day
[25] = test system: Mus musculus; assay: Analgesic activity in albino mouse assessed as forepaw licking/jumping latency time at 10 mg/kg, ip measured after 90 mins by hot plate test (reference value: 2.72 +/- 0.01 sec); assay type: functional; details: 1.5 h
[26] = test system: Mus musculus; assay: Analgesic activity in albino mouse assessed as protection at 10 mg/kg, ip measured after 60 mins by hot plate test (reference value: 0 %); assay type: functional; details: 1 h
[27] = Toxicity in albino mouse assessed as induction of toxic symptoms at 50 to 100 mg/kg, ip measured after 24 hrs; assay type: organism-based; details: in vivo, dose 50-100 mg/kg
[28] = test system: Mus musculus; assay: Analgesic activity in albino mouse assessed protection against acetic acid-induced abdominal writhing at 10 mg/kg, ip pretreated for 1 hr followed by acetic acid challenge and measured starting 5 mins post acetic acid challenge for 10 mins relative to indomethacin; assay type: functional; details: time 75 min, 1.25 h
[29] = test system: Mus musculus; assay: Analgesic activity in albino mouse assessed protection against acetic acid-induced abdominal writhing at 10 mg/kg, ip pretreated for 1 hr followed by acetic acid challenge and measured starting 5 mins post acetic acid challenge for 10 mins relative to control (reference value: 0 %); assay type: functional; details: time 75 min, 1.25 h
[30] = Ulcerogenic activity in fasted albino mouse assessed as ulcer index in gastric mucosa at 10 mg/kg, po for 3 days (reference value: 0); assay type: toxicity, organism-based; details: in vivo, 72 h, time 3 day
[31] = test system: Mus musculus; assay: Analgesic activity in albino mouse assessed as protection at 10 mg/kg, ip measured after 30 mins by hot plate test (reference value: 0 %); assay type: functional; details: 0.5 h
[32] = test system: Mus musculus; assay: Analgesic activity in albino mouse assessed as protection at 10 mg/kg, ip measured after 120 mins by hot plate test (reference value: 0 %); assay type: functional; details: 2 h
[33] = test system: Mus musculus; assay: Analgesic activity in albino mouse assessed reduction in acetic acid-induced abdominal writhing by measuring writing reflex at 10 mg/kg, ip pretreated for 1 hr followed by acetic acid challenge and measured starting 5 mins post acetic acid challenge for 10 mins (reference value: 42.4 +/- 1.02); assay type: functional; details: time 75 min, 1.25 h
[34] = test system: Mus musculus; assay: Analgesic activity in albino mouse assessed as forepaw licking/jumping latency time at 10 mg/kg, ip measured after 120 mins by hot plate test (reference value: 2.62 +/- 0.06 sec); assay type: functional; details: 2 h
[35] = test system: Mus musculus; assay: Analgesic activity in albino mouse assessed as protection at 10 mg/kg, ip measured after 120 mins by hot plate test relative to indomethacin; assay type: functional; details: 2 h
[36] = test system: Mus musculus; assay: Analgesic activity in albino mouse assessed as forepaw licking/jumping latency time at 10 mg/kg, ip measured after 30 mins by hot plate test (reference value: 5.02 +/- 0.09 sec); assay type: functional; details: 0.5 h
[37] = Ulcerogenic activity in fasted albino mouse assessed as average severity of ulcers in gastric mucosa at 10 mg/kg, po for 3 days (reference value: 0); assay type: toxicity, organism-based; details: in vivo, 72 h, time 3 day
[38] = Ulcerogenic activity in fasted albino mouse assessed as incidence of gastric ulceration at 10 mg/kg, po for 3 days (reference value: 0 %); assay type: toxicity, organism-based; details: in vivo, 72 h, time 3 day
[39] = test system: Mus musculus; assay: Analgesic activity in albino mouse assessed as protection at 10 mg/kg, ip measured after 90 mins by hot plate test (reference value: 0 %); assay type: functional; details: 1.5 h
[40] = test system: Mus musculus; assay: Analgesic activity in albino mouse assessed as forepaw licking/jumping latency time at 10 mg/kg, ip measured after 60 mins by hot plate test (reference value: 3.42 +/- 0.03 sec); assay type: functional; details: 1 h

SMILES | MIC [1] | MIC [2] | inhibition in vivo at 10 mg/kg [3] | viability at 10 µM [4] | Activity_index [5] | Activity [6] | inhibition in vivo at 10 mg/kg [7] | Activity [8] | inhibition in vivo at 10 mg/kg [9] | inhibition in vivo at 10 mg/kg [10] | MIC [11] | MIC [12] | Activity [13] | Activity [15] | MIC [16] | Activity [17] | IC50 [18] | Activity [20] | inhibition in vivo at 10 mg/kg [21] | Activity [22] | other results
COc1cc(/C=C/C(=O)/C=C(O)/C=C/c2ccc(OC(=O)[C@@H](N)CCC(N)=O)c(OC)c2)ccc1OC(=O)[C@@H](N)CCC(N)=O.Cl.Cl | 0.5 µg/mL and 0.717 µM | 0.125 µg/mL and 0.179 µM | 48% | 54.5% | 2.22 | 0.57 mm | 45% | 1.29 mm | 31% | 46% | 0.5 µg/mL and 0.717 µM | 0.125 µg/mL and 0.179 µM | 1.02 mm | 1.14 mm | 0.25 µg/mL and 0.358 µM | 0.81 mm | 34.4 µM | 21.75 µM | 42% | 20.35% | IC50 [14]: 9.15 µM; IC50 [19]: 21.1 µM; inhibition in vivo at 10 mg/kg [23]: 43%
COc1cc(/C=C/C(=O)/C=C(O)/C=C/c2ccc(OC(=O)[C@@H](N)Cc3ccccc3)c(OC)c2)ccc1OC(=O)[C@@H](N)Cc1ccccc1.Cl.Cl | 0.5 µg/mL and 0.68 µM | 0.125 µg/mL and 0.17 µM | 97% | 85.6% | 1.41 | 0.66 mm | 51% | 1.29 mm | 20% | 46% | 0.5 µg/mL and 0.68 µM | 0.5 µg/mL and 0.68 µM | 0.66 mm | 1.01 mm | 0.25 µg/mL and 0.34 µM | 0.22 mm | 74.4 µM | 16.46 µM | 84% | 39.74% | IC50 [14]: 11.5 µM; IC50 [19]: 33.5 µM; inhibition in vivo at 10 mg/kg [23]: 63%
COc1cc(/C=C/C(=O)/C=C(O)/C=C/c2ccc(OC(=O)[C@H](CCSC)NC(=O)OC(C)(C)C)c(OC)c2)ccc1OC(=O)[C@H](CCSC)NC(=O)OC(C)(C)C | 1 µg/mL and 1.2 µM | 2 µg/mL and 2.41 µM | 101% | 88.5% | 1.37 | 0.64 mm | 36% | 1.59 mm | 23% | 34% | 2 µg/mL and 2.41 µM | 1 µg/mL and 1.2 µM | 1.01 mm | 1.31 mm | 2 µg/mL and 2.41 µM | 0.17 mm |  | 16.16 µM | 88% | 40.84% | Activity [24]: 0; Time [25]: 4.26 s; Activity [26]: 70.8%; Activity [27]: Non-Toxic; Activity [28]: 115.3%; Activity [29]: 71%; UI [30]: 0; Activity [31]: 14.3%; Activity [32]: 47.3%; Activity [33]: 12.3; Time [34]: 3.86 s; Activity [35]: 112.6%; Time [36]: 5.74 s; Activity [37]: 0; Activity [38]: 0%; inhibition in vivo at 10 mg/kg [23]: 44%; Activity [39]: 56.6%; Time [40]: 5.84 s
COc1cccc2c1C(=O)c1c(O)c3c(c(O)c1C2=O)C[C@@](O)(C(=O)CO)C[C@@H]3O[C@H]1C[C@H](N)[C@H](O)[C@H](C)O1 [DOXORUBICIN] |  |  |  |  |  |  |  |  |  |  |  |  |  |  |  |  | 38 µM |  |  |  | 
